According to paper PMC4266452, “Prediction of Thorough QT study results using action potential simulations based on ion channel screens” (Journal of Pharmacological and Toxicological Methods, 2014):
“And” between values parts separate entries of the source, which are not always exact repeats. Identical values can stand only once. Like-named read-outs stand apart in the source and are kept apart here.

Legend:
[1] = tested on: QT interval on the body surface ECG; settings: cited from earlier work; for QT shortening in the TQT study: range over the three drugs
KCNQ1/MinK = KCNQ1/MinK (Homo sapiens, UniProt P51787); assay: IonWorks Quattro KCNQ1/MinK screen (AstraZeneca, Q); settings: −log10 of IC50 in Molar, Hill n = 1, 0.0 = pIC50 ≤ 0 fitted
[2] = cited from earlier work
Kv4.3/KChIP2.2 = molecular target: T1, Kv4.3/KChIP2.2 (Homo sapiens, UniProt Q9UK17); assay: IonWorks Quattro Kv4.3/KChIP2.2 screen (AstraZeneca, Q); assay type: cell-based; settings: IonWorks Quattro, −log10 of IC50 in Molar, Hill n = 1
T1 sequence (Q9UK17 1-655): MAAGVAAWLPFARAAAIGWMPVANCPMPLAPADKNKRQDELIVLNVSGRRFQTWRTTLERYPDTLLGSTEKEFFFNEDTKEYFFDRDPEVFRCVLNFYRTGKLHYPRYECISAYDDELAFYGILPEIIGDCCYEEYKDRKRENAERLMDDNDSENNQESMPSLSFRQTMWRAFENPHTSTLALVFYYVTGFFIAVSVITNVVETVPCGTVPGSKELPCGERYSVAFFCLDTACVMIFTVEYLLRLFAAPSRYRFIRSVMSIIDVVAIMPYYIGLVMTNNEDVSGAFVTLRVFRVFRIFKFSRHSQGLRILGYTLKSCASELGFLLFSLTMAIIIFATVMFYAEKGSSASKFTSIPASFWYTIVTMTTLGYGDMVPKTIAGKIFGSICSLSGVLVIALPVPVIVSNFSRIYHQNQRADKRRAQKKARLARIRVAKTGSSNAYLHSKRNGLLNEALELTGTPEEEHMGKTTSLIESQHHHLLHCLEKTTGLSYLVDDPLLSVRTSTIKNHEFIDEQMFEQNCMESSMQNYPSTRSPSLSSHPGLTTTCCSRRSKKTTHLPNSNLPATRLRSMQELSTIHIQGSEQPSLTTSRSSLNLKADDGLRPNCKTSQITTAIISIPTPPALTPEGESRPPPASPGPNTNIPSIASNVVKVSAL
T1 sequence (Q9NS61 1-270 partner): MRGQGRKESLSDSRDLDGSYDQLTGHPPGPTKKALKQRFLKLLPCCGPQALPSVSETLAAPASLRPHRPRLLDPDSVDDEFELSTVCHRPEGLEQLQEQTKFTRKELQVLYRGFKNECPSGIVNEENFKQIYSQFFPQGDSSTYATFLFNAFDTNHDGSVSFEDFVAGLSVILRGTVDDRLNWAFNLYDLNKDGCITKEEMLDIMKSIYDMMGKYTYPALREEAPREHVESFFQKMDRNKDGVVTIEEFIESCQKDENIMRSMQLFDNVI

[3] = ref Gintant (2011); cited from earlier work
[4] = Plasma concentration (Cmax) during the TQT study, total and calculated free; assay type: in vivo, human
NaV1.5 [5] = molecular target: T2, NaV1.5 (Homo sapiens, UniProt Q14524); assay: IonWorks Quattro NaV1.5 screen (AstraZeneca, Q)
CaV1.2 = CaV1.2 (Homo sapiens, UniProt Q13936); assay: IonWorks Quattro CaV1.2 screen (AstraZeneca, Q)
NaV1.5 [6] = molecular target: T2, NaV1.5; assay: Second IonWorks Quattro NaV1.5 screen (GSK, Q2)
[7] = 40 mg, ref FDA product label review
[8] = Cmax high, calculated from ng/mL and molecular weight
[9] = Cmax high, calculated with PPB and molecular weight
[10] = Cmax low, calculated from ng/mL and molecular weight
[11] = first (lower) of two lines, not labelled low/high
[12] = second (higher) of two lines, not labelled low/high
[13] = Cmax low, calculated with PPB and molecular weight
[14] = IonWorks Quattro, −log10 of IC50 in Molar, Hill n = 1, 0.0 = pIC50 ≤ 0 fitted

Chain of CaV1.2 (Q13936 whole entry): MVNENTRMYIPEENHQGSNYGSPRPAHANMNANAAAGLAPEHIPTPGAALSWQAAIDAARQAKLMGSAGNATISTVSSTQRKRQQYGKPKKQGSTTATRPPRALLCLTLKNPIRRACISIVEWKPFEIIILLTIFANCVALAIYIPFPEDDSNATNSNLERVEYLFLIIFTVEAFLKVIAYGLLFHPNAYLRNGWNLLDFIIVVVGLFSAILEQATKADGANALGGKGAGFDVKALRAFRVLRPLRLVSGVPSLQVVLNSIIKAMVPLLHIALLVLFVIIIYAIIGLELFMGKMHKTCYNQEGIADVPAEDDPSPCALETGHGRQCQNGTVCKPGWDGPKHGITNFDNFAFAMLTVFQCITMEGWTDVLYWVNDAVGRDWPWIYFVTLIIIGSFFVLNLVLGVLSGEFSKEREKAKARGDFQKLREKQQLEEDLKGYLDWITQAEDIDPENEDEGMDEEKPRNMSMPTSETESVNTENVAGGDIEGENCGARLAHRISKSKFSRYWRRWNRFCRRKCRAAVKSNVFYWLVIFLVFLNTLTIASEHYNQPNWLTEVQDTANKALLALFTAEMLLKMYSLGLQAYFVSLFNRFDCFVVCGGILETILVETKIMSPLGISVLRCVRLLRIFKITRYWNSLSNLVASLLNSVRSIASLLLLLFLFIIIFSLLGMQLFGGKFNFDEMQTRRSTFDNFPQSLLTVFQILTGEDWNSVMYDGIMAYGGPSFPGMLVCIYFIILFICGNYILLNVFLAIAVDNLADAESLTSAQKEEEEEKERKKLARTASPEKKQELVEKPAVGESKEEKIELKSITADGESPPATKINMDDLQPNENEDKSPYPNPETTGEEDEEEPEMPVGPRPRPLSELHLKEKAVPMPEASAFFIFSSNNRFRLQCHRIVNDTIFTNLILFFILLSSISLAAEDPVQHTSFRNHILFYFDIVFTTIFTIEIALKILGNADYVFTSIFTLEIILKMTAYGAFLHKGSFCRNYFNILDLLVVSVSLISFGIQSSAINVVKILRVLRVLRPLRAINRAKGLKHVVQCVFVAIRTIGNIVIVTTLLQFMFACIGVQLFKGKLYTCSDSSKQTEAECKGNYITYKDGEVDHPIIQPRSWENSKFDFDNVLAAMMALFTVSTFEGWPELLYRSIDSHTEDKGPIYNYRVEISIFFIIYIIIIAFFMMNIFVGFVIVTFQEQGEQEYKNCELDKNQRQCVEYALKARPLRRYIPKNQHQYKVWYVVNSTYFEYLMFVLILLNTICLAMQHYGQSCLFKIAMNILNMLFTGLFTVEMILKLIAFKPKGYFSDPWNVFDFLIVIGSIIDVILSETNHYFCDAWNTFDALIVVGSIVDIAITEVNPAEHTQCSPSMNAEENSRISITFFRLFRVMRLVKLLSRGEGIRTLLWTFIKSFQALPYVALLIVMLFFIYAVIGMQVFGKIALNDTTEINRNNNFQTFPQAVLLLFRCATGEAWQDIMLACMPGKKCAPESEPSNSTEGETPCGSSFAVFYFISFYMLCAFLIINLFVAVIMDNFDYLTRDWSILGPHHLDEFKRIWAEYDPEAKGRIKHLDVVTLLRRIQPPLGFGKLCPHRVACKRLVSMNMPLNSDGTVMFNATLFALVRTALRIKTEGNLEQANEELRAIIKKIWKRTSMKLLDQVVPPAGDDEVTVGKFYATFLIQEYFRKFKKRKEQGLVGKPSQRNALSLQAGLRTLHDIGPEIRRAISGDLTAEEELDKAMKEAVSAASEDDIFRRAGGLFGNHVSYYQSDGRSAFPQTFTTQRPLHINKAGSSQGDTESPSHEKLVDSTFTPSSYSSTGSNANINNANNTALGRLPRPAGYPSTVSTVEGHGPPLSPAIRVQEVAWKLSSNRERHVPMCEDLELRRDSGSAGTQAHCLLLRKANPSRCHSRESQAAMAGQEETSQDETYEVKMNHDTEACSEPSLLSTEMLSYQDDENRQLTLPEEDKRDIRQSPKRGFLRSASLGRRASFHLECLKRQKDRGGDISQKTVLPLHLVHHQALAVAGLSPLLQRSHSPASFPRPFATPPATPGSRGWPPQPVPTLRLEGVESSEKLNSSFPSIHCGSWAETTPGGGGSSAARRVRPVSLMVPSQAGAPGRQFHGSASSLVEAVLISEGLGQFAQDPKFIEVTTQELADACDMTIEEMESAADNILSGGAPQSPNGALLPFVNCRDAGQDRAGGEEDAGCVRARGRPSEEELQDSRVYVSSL
Chain of CaV1.2 (Q08289 whole entry partner): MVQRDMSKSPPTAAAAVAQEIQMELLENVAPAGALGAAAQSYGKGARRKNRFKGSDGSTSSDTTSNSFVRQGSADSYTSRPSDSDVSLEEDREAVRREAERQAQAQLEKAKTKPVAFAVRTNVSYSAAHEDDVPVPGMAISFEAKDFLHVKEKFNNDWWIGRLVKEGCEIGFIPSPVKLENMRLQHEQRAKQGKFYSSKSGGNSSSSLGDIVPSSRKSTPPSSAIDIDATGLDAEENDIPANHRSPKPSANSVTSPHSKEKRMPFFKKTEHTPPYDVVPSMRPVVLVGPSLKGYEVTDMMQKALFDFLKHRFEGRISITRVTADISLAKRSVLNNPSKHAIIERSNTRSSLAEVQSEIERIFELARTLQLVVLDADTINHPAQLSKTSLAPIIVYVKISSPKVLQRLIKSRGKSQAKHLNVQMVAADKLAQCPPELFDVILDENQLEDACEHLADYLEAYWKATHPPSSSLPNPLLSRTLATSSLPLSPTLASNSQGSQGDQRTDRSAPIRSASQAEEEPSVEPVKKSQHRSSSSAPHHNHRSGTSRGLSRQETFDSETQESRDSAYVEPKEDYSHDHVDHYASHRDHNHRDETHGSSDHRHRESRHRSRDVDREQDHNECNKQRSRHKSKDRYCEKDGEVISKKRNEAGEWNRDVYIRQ
Chain of CaV1.2 (P54289 25-956 partner limits assumed): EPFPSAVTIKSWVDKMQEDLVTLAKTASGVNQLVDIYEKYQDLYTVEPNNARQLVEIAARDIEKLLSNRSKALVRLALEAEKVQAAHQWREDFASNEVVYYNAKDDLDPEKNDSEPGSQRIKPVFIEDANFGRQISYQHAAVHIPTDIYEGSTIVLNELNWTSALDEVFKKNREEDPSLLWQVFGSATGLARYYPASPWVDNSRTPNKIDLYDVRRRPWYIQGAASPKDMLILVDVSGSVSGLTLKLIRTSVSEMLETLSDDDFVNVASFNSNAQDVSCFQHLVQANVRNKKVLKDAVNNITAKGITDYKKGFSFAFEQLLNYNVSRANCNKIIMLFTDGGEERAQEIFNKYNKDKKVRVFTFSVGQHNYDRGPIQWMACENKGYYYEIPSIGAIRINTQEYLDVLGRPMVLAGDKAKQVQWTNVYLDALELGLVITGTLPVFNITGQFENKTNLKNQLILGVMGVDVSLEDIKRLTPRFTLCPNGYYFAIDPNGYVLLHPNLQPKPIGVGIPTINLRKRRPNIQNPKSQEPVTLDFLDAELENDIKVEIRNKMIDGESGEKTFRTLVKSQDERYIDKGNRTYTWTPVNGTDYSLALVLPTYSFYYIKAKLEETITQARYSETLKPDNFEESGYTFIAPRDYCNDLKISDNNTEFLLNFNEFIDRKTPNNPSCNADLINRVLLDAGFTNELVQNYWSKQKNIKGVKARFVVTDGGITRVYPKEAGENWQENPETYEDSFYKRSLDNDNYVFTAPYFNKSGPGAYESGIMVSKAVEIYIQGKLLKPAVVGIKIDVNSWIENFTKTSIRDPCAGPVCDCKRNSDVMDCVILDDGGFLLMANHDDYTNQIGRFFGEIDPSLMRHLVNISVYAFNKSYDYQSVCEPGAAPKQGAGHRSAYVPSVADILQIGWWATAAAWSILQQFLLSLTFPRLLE
Chain of CaV1.2 (P54289 957-1103 partner limits assumed): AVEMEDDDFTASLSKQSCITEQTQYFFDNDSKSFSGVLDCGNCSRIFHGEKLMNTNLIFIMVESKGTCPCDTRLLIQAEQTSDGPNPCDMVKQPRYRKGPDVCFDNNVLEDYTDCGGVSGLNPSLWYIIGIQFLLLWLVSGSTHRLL
Chain of KCNQ1/MinK (P51787 whole entry): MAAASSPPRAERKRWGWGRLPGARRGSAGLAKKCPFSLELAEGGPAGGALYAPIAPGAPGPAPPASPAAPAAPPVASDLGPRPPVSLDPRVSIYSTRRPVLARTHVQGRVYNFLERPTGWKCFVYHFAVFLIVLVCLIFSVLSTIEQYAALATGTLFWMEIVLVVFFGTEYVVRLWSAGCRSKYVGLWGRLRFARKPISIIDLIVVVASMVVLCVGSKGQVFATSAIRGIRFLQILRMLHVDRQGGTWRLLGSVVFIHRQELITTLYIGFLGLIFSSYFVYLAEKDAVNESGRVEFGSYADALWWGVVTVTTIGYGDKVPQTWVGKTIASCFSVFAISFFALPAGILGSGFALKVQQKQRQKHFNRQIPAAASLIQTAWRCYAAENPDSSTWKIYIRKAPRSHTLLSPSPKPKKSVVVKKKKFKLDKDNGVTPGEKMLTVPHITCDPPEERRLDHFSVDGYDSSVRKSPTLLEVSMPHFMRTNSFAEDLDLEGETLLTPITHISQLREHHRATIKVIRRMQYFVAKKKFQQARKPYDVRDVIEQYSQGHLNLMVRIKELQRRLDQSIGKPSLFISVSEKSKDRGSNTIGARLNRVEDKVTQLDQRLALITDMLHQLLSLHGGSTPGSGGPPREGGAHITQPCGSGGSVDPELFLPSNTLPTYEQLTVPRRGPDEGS

Structure (SMILES) | Cmax TOTAL ([2]; Cmax high, ref Gintant (2011)) | Cmax TOTAL ([2]; Cmax low, ref Gintant (2011)) | Kv4.3 pIC50 (Q) (Kv4.3/KChIP2.2; 0.0 = pIC50 ≤ 0 fitted) | PPB (percent plasma binding) [3] | Cmax FREE ([4]; Cmax high, calculated with PPB) | Cmax FREE [4, 9] | Free plasma concentration ([4]; Cmax low) | Cmax FREE ([4]; Cmax low, calculated with PPB) | Cmax FREE [4, 13] | other results
COCCCOc1cc(C[C@@H](C[C@H](N)[C@@H](O)C[C@H](C(=O)NCC(C)(C)C(N)=O)C(C)C)C(C)C)ccc1OC [ALISKIRIN] |  |  |  |  |  |  |  |  |  | relationship between exposure and QTc in words (COMMENTS) ([1]; ref Gintant (2011)): Lack of relationship between aliskirin exposure and QTcF
COc1cc2nc(N(C)CCCNC(=O)C3CCCO3)nc(N)c2cc1OC (stereo not shown) [Alfuzosin] | 40.5 ng/mL | 8 ng/mL | 3.0 | 90% ppb | 4.05 ng/mL | 7.74 nM | 1.529 nM | 0.80 ng/mL |  | KCNQ1 pIC50 (Q) (KCNQ1/MinK): 3.9; QTc change, individual correction [1, 7]: 4.3 ms; QTc change, population correction [1, 7]: 4.2 ms; Free plasma concentration ([4]; Cmax high): 7.739 nM; Cmax TOTAL [4, 8]: 77.39 nM; Cmax TOTAL [4, 10]: 15.29 nM; estimated TQT concentration (free plasma) ([4]; largest dose in the TQT study): < 10^–2 μM
NC(=O)C(c1ccccc1)(c1ccccc1)[C@@H]1CCN(CCc2ccc3c(c2)CCO3)C1 [Darifenacin] |  |  | 4.9 | 98% PPB |  |  |  |  |  | Cmax TOTAL ([2]; first (lower) of two lines, not labelled low/high, ref Gintant (2011)): 5.6 ng/mL; Cmax TOTAL ([2]; second (higher) of two lines, not labelled low/high, ref Gintant (2011)): 63.3 ng/mL; QT shortening in the TQT study ([1]; ref Gintant (2011)): 2 to 7 ms; Cmax FREE [4, 11]: 0.112 ng/mL and 0.2207 nM; Cmax TOTAL [4, 11]: 11.0345 nM; Free plasma concentration [4, 11]: 0.2207 nM; Cmax FREE [4, 12]: 1.266 ng/mL and 2.495 nM; Cmax TOTAL [4, 12]: 124.729 nM; Free plasma concentration [4, 12]: 2.495 nM
Cc1nc(Nc2ncc(C(=O)Nc3c(C)cccc3Cl)s2)cc(N2CCN(CCO)CC2)n1.O [Dasatinib] | 263 ng/mL | 100 ng/mL |  | 96% PPB | 10.52 ng/mL | 20.790 nM | 7.905 nM | 4 ng/mL | 7.905 nM | Kv4.3 pIC50 (Q) (Kv4.3/KChIP2.2; […]): 3.5; Free plasma concentration ([4]; Cmax high): 20.79 nM; Cmax TOTAL [4, 8]: 519.742 nM; Cmax TOTAL [4, 10]: 197.621 nM
O=C(O)c1ccc(-n2nc(-c3ccccc3O)nc2-c2ccccc2O)cc1 [Deferasirox] |  |  |  | 99.5% |  |  |  |  |  | Cmax TOTAL ([2]; Cmax TQT, 40mg/kg, comes from docs, ref Gintant (2011)): 199 comes from docs for Cmax uM; NaV1.5 pIC50 (Q) (NaV1.5 [5]; [14]): 4.1; CaV1.2 pIC50 (Q) (CaV1.2; [14]): 3.0; Cmax FREE ([4]; Cmax 40mg/kg): 995 nM; Cmax TOTAL ([4]; Cmax 40mg/kg): 199000 nM; Free plasma concentration ([4]; Cmax 40mg/kg): 995 nM; NaV1.5 pIC50 (Q2) (NaV1.5 [6]; second independent Quattro screening, −log10 of IC50 in Molar, 0.0 = pIC50 ≤ 0 fitted): 3.3
CN(CCOc1ccc(NS(C)(=O)=O)cc1)CCc1ccc(NS(C)(=O)=O)cc1 [Dofetilide] |  |  |  |  |  |  |  |  |  | total plasma conc ([2]; ref Gintant (2011)): 9.5 nM; plasma concentration ([4]; end of the line in nM): 9.5 nM; plasma concentration ([4]; end of the line in ng/mL): 4.195 nM; therapeutic range, lower value ([4]; line in ng/mL): 0.1766 ng/mL; therapeutic range, upper value ([4]; line in ng/mL): 0.8832 ng/mL; total plasma conc ([4]; line in ng/mL): 4.1952 ng/mL
C[C@@H](O)[C@H]1C(=O)N2C(C(=O)O)=C(S[C@@H]3CN[C@H](CNS(N)(=O)=O)C3)[C@H](C)[C@H]12 [Doripenem] | 45000 ng/mL | 21000 ng/mL |  | 8.1% PPB | 41355 ng/mL | 98346.2 nM | 45894.9 nM | 19299 ng/mL | 45894.9 nM | CaV1.2 pIC50 (Q) (CaV1.2): 5.7; Free plasma concentration ([4]; Cmax high): 98346.2 nM
Cc1cc(C#N)cc(C)c1Oc1nc(Nc2ccc(C#N)cc2)nc(N)c1Br [Etravirine] | 1322 ng/mL | 921 ng/mL | 2.5 | 99.9% PPB | 1.322 ng/mL | 3.037 nM |  | 0.921 ng/mL | 2.116 nM | KCNQ1 pIC50 (Q) (KCNQ1/MinK): 2.9; mean Cmax ([2]; supratherapeutic / highest dose of the TQT study, ref Gintant (2011)): 1378 ng/mL; QTc change (QTcF) ([1]; TQT study, highest dose, ref Gintant (2011)): -5.70 ms; QT shortening in the TQT study ([1]; ref Gintant (2011)): 2 to 7 ms; TQT study outcome in words (COMMENTS) ([1]; ref Gintant (2011)): QT shortening
CO[C@H]1C[C@@H]2CC[C@@H](C)[C@@](O)(O2)C(=O)C(=O)N2CCCC[C@H]2C(=O)O[C@H]([C@H](C)C[C@@H]2CC[C@@H](OCCO)[C@H](OC)C2)CC(=O)[C@H](C)/C=C(\C)[C@@H](O)[C@@H](OC)C(=O)[C@H](C)C[C@H](C)/C=C/C=C/C=C/1C [Everolimus] |  |  | 2.0 | 74% |  |  |  |  |  | KCNQ1 pIC50 (Q) (KCNQ1/MinK): 4.0; Cmax TOTAL ([2]; Cmax 50mg/kg, ref http://journals.lww.com/jto/pages/articleviewer.aspx?year=2011&issue=12000&article=00023&type=abstract Table 6): 251 ng/mL; NaV1.5 pIC50 (Q) (NaV1.5 [5]): 3.2; Cmax FREE ([4]; Cmax 50mg/kg): 65.26 ng/mL; Cmax TOTAL ([4]; Cmax 50mg/kg): 261.943 nM; NaV1.5 pIC50 (Q2) (NaV1.5 [6]): 3.7
COc1c(N2C[C@@H]3CCCN[C@@H]3C2)c(F)cc2c(=O)c(C(=O)O)cn(C3CC3)c12 [Moxifloxacin] |  | 2793.4 ng/mL |  | 55% PPB |  |  | 2745 nM | 1257.030 ng/mL |  | 
Cc1cn(-c2cc(NC(=O)c3ccc(C)c(Nc4nccc(-c5cccnc5)n4)c3)cc(C(F)(F)F)c2)cn1 [Nilotinib] |  | […] |  | 98% PPB |  |  | 83.86 nM | 45.200 ng/mL | 83.861 nM | NaV1.5 pIC50 (Q) (NaV1.5 [5]): 3.0; Cmax TOTAL [4, 10]: 4193.028 nM; NaV1.5 pIC50 (Q2) (NaV1.5 [6]): […]
O=C1c2cccc3c2[C@H](CCC3)CN1[C@@H]1CN2CCC1CC2 [Palonosetron] | 5.6 ng/mL | 2.549 ng/mL |  | 62% | 2.128 ng/mL | 6.393 nM | 2.91 nM | 0.9686 ng/mL | 2.910 nM | TQT study outcome in words (COMMENTS) ([1]; ref Gintant (2011)): Product labeling: no significant effect on any ECG interval; Free plasma concentration ([4]; Cmax high): 6.393 nM; Cmax TOTAL [4, 8]: 16.823 nM; Cmax TOTAL [4, 10]: 7.658 nM
CCCc1nn(C)c2c(=O)[nH]c(-c3cc(S(=O)(=O)N4CCN(C)CC4)ccc3OCC)nc12 [Sildenafil] |  |  | 3.3 | 96% | 60.76 ng/mL | 128.024 nM |  | 7.12 ng/mL | 15.0021 nM | NaV1.5 pIC50 (Q) (NaV1.5 [5]): 3.3; NaV1.5 pIC50 (Q2) (NaV1.5 [6]): 2.9
N[C@@H](CC(=O)N1CCn2c(nnc2C(F)(F)F)C1)Cc1cc(F)c(F)cc1F [Sitagliptin] | 5468 ng/mL | 498 ng/mL |  | 30% PPB | 3827.6 ng/mL | 9397.17 nM |  | 348.6 ng/mL | 855.851 nM | KCNQ1 pIC50 (Q) (KCNQ1/MinK): 3.5; NaV1.5 pIC50 (Q) (NaV1.5 [5]): 3.1; TQT study outcome in words (COMMENTS) ([1]; ref Gintant (2011)): Minimal effects at supratherapeutic concentrations; CaV1.2 pIC50 (Q) (CaV1.2; [14]): 1.0; NaV1.5 pIC50 (Q2) (NaV1.5 [6]): 3.2
O=C(O[C@H]1CN2CCC1CC2)N1CCc2ccccc2[C@@H]1c1ccccc1 [Solifenacin] |  |  |  | 98% PPB |  |  |  |  |  | 
CC[C@@H](c1cccc(O)c1)[C@@H](C)CN(C)C [TAPENTADOL] |  |  |  |  |  |  |  |  |  | TQT study outcome in words (COMMENTS) ([1]; ref Gintant (2011)): 90% Confidence interval; study considered negative
